{
  "source": "patent US20050042291A1",
  "about": "“Diffusion layer modulated solids” (priority 2003, published 2005)",
  "key": {"[1]": {"experiment": "Rat oral bioavailability of tipranavir disodium spray dried powders", "type": "in vivo", "settings": "plasma, 20 mg/kg", "experimental": "HPLC analysis of tipranavir in the rat plasma samples following administration of the various tipranavir disodium spray dried powders was conducted using an RP 8 column (Zorbax, DuPont) with a mobile phase consisting of methanolaqueous 0.05 M formate buffer, pH 4 ([…]).\nThe rat oral bioavailability of tipranavir disodium spray dried powders as well as the parent tipranavir disodium bulk drug were administered by intubation of the powders using a group of 7-8 rats (250-290 g) obtained from Taconic (Germantown, N.Y.). Intubation was achieved using a 10 cm (4 inch) section of Teflon tubing, […], containing a piece of cheese (American, fat free) inserted into the bottom of the tubing. The desired tipranavir disodium powdered bulk drug was placed into the tube and the tube was inserted into the stomach of the rat. The drug was displaced from the Teflon tubing and into the stomach by passing 2 ml of water through the tubing. The dose was 20 mg/kg in all cases.\nThe blood samples were processed with precipitation of the proteins with acetonitrile followed by centrifugation. The samples were assayed as described above."}, "[2]": {"experiment": "Intrinsic dissolution rate of co-compressed pellets, fiber optic automated rotating disk dissolution method", "type": "physicochemical", "settings": "for Percent dissolved in 60 minutes at pH 6: pH 6 (0.01 M phosphate) with 0.6% SLS", "experimental": "The 0.48 cm ( 3/16 inch) HSS rod was inserted into the die to a distance of 1.9 cm (¾ inch), leaving 0.64 (¼ inch) for placement of 20±1 mg of the drug or drug mixture into the 0.48 cm ( 3/16 inch) diameter hole.\nAfter adding the drug, the punch (or HSS rod) was inserted into the die and the entire die assembly was placed into a 3-bolt holder that was used to hold a 0.64 cm (¼ inch) SS base plate firmly against the powder bed during compression in the die. Compression of the powder was achieved on a Carver press using a stepwise increase in the force up to 4450 newtons (1000 pounds force) (i.e., 255 MPa (37000 psi)) and then a progressive decrease in pressure as described in the following. A force of 1110 newtons (250 pounds force) was applied for approximately 10 seconds and the pressure was removed. This was repeated at 2220 newtons (500 pounds force), 3330 newtons (750 pounds force), and 4450 newtons (1,000 pounds force). The 4450 newtons (1000 pounds force) (i.e., 255 MPa (37000 psi)) was applied again and maintained for 1 minute. The pressure was decreased stepwise by simply lowering the pressure and then holding it at 3330 newtons (750 pounds force) for 10 seconds and repeating this at 2220 newtons (500 pounds force), 1110 newtons (250 pounds force) and, finally, the pressure was removed.\nThe die and holder was removed from the Carver press and the punch (or HSS rod) was twisted to loosen the rod and to allow the pellet to relax or expand from the backside. After a three minute (minimum) relaxation period, the set-screw on the HSS rod was firmly secured to the die.\nThe entire punch and die assembly containing the drug pellet with one face of the drug pellet exposed was removed as a unit from the holder and the intrinsic dissolution rate was determined as described below.\nThe HSS rod in the die containing the drug compact with one face of the drug pellet exposed was attached to an electric motor with a fixed speed of 300 revolutions per minute (rpm). The die was rotated (300 rpm) while the die (containing the drug pellet) was lowered at t=0 into the center of the dissolution vessel consisting of a jacketed 800 mL beaker (Pyrex, No.1000) containing 500 mL of the desired de-gassed (house vacuum, 3 minutes) dissolution medium maintained at 37±0.5° C. The dissolution medium consisted of either dilute HCl (0.01, 0.001 or 0.0001 N HCl) or pH 6, 0.01 M phosphate containing 0.6% SLS (sodium lauryl sulfate). The die was positioned such that the drug compact was approximately 6.4 cm (2.5 inches) from the bottom of the 500 mL dissolution beaker and approximately the same distance from the liquid surface. Continuous monitoring by ultraviolet (UV) spectroscopy was conducted by the fiber optic UV automated dissolution method or samples were taken automatically by the HPLC sampling method as described below.\nThe Fiber Optic Dissolution System. The fiber optic UV automated dissolution system employed an Ocean Optics PC Model 1000 fiber optic spectrophotometer connected to a 120 mHz Pentium computer. The dissolution process was monitored continuously at 290 nm with the fiber optic probe with 5-10 data points taken per minute. The data was processed automatically with a Visual Basic application program that allowed the data to be collected automatically from the spectrophotometer.\nThe delavirdine mesylate intrinsic dissolution rate profile was plotted in Excel and the intrinsic dissolution rate was calculated automatically by the program. The dissolution period was usually 15 minutes, but could be as short as approximately 1 minute, or as long as a few hours.\nCalculation of the Intrinsic Dissolution Rate."}, "Solubility": {"experiment": "Solubility", "type": "physicochemical", "settings": "water, pH 6, water"}},
  "note": "Where a name gives a salt, the structure may show the parent alone. Read-outs that look alike come from different tables or passages of the source.",
  "data": [
    {"smiles": "CCC[C@@]1(CCc2ccccc2)CC(O)=C([C@H](CC)c2cccc(NS(=O)(=O)c3ccc(C(F)(F)F)cn3)c2)C(=O)O1", "note": "[Tipranavir Disodium bulk drug, tipranavir disodium]", "values": [
      {"measurement": "AUC(0-inf)", "setting": "[1]; fasted, read-out: AUCInf, fasted", "value": 23.4, "unit": "µg·h/mL"},
      {"measurement": "AUC(0-inf)", "setting": "[1]; fed, read-out: AUCInf, fed", "value": 45.8, "unit": "µg·h/mL"}
    ]},
    {"smiles": "CC(C)Nc1cccnc1N1CCN(C(=O)c2cc3cc(NS(C)(=O)=O)ccc3[nH]2)CC1", "note": "[Delavirdine Mesylate, delavirdine mesylate]", "values": [
      {"measurement": "IDR, pH 2 0.01 N HCl", "setting": "[2]; pH 2 0.01 N HCl, 37° C., 300 rpm, observed", "value": "220 micrograms · cm^−2 · sec^−1"},
      {"measurement": "Percent of pellet dissolved at pH 2", "setting": "[2]; pH 2 (0.01 N) HCl, 37° C., dissolution then stops", "value": "approximately 60%"},
      {"measurement": "Percent dissolved in 60 minutes at pH 6", "setting": "[2]; 20 mg pellet, listed as Delavirdine mesylate alone", "value": "approximately 2%"},
      {"measurement": "Percent dissolved in 60 minutes at pH 6", "setting": "[2]; 20 mg pellet, listed as pure delavirdine mesylate", "value": "less than 1%"},
      {"measurement": "IDR, pH 6 with 0.5% SLS", "setting": "[2]; pH 6 with 0.5% SLS, 37° C., 300 rpm, observed", "value": "2 micrograms · cm^−2 · sec^−1"},
      {"measurement": "Percent dissolved in less than 10 minutes at pH 6", "setting": "[2]; pH 6 with 0.6% SLS, less than 10 minutes, 20 mg pellet", "value": "less than 1%"}
    ]},
    {"smiles": "CCC[C@@]1(CCc2ccccc2)CC(O)=C([C@H](CC)c2cccc(NS(=O)(=O)c3ccc(C(F)(F)F)cn3)c2)C(=O)O1", "note": "[tipranavir]", "values": [
      {"measurement": "solubility", "setting": "Solubility", "value": "5 to 10", "unit": "µg/mL"}
    ]}
  ]
}
